Source: patent US8758816B2, “Compositions comprising azelastine and methods of use thereof” (priority 2004, dated 2014)
Counter-ions that a name gives are not always drawn. Like-named read-outs stand apart in the source and are kept apart here.

How the values were obtained:
[1] = human, in vivo; cited from earlier work
[2] = test system: patients with seasonal allergic rhinitis (SAR); conditions: in vivo
[3] = test system: patients with seasonal allergic rhinitis (SAR); test: MP 428 study: 14.3.5 Vital Sign Assessments, Safety Population
[4] = Day 14, Patients of Age 12 to 17
[5] = Day 14, Patients of Age 18 and Beyond
[6] = Day 14, baseline at Screening, Patients of Age 12 to 17
[7] = Day 14, baseline at Screening, Patients of Age 18 and Beyond
[8] = Day 14, baseline at Screening, Safety Population
[9] = Screening, Patients of Age 12 to 17
[10] = Screening, Patients of Age 18 and Beyond

SMILES: CN1CCCC(n2nc(Cc3ccc(Cl)cc3)c3ccccc3c2=O)CC1 (racemic) [Azelastine, (±)-1-(2H)-phthalazinone, 4-[(4-chlorophenyl)methyl]-2-(hexahydro-1-methyl-1H-azepin-4-yl)-, mono-hydrochloride]
- bitter taste adverse event [1]: 19.7%
- Body Weight for Patients of Age 12 to 17, Actual, Mean [2]: 104.7 lb
- Body Weight for Patients of Age 12 to 17, Actual, Median [2]: 104.0 lb
- Body Weight for Patients of Age 12 to 17, Actual, Min-Max [2]: 98-112 lb
- Body Weight for Patients of Age 18 and Beyond, Actual, Mean [2]: 186.2 lb
- Body Weight for Patients of Age 18 and Beyond, Actual, Median [2]: 177.8 lb
- Body Weight for Patients of Age 18 and Beyond, Actual, Min-Max [2]: 102-284 lb
- Body Weight, Actual, Mean [2]: 181.2 lb
- Body Weight, Actual, Median [2]: 174.0 lb
- Body Weight, Actual, Min-Max [2]: 98-284 lb
- Respiration, Actual, Median [2]: 16.0 bpm
- Respiration, Change from baseline, Median [2]: 0.0 bpm
- Respiration, Change from baseline, Min-Max [2]: −4-4 bpm

SMILES: CCC(=O)O[C@]1(C(=O)SCF)[C@H](C)C[C@H]2[C@@H]3C[C@H](F)C4=CC(=O)C=C[C@]4(C)[C@@]3(F)[C@@H](O)C[C@@]21C [Fluticasone, fluticasone propionate]
- Diastolic Blood Pressure, Actual, Mean ([3]; Day 1, Safety Population): 74.0 mmHg
- Diastolic Blood Pressure, Actual, Median ([3]; Day 1, Safety Population): 76.0 mmHg
- Diastolic Blood Pressure, Actual, Min-Max ([3]; Day 1, Safety Population): 41-89 mmHg
- Pulse Rate, Actual, Mean ([3]; Day 1, Safety Population): 75.0 bpm
- Pulse Rate, Actual, Median ([3]; Day 1, Safety Population): 75.0 bpm
- Pulse Rate, Actual, Min-Max ([3]; Day 1, Safety Population): 57-92 bpm
- Respiration, Actual, Mean ([3]; Day 1, Safety Population): 15.8 bpm
- Respiration, Actual, Median ([3]; Day 1, Safety Population): 16.0 bpm
- Respiration, Actual, Min-Max ([3]; Day 1, Safety Population): 12-18 bpm
- Systolic Blood Pressure, Actual, Mean ([3]; Day 1, Safety Population): 117.9 mmHg
- Systolic Blood Pressure, Actual, Median ([3]; Day 1, Safety Population): 118.5 mmHg
- Systolic Blood Pressure, Actual, Min-Max ([3]; Day 1, Safety Population): 93-142 mmHg
- Temperature, Actual, Mean ([3]; Day 1, Safety Population): 97.89 ° F.
- Temperature, Actual, Median ([3]; Day 1, Safety Population): 97.85 ° F.
- Temperature, Actual, Min-Max ([3]; Day 1, Safety Population): 97.0-99.8 ° F.
- Diastolic Blood Pressure, Actual, Mean ([3]; Day 7, Safety Population): 72.7 mmHg
- Diastolic Blood Pressure, Actual, Median ([3]; Day 7, Safety Population): 74.0 mmHg
- Diastolic Blood Pressure, Actual, Min-Max ([3]; Day 7, Safety Population): 58-86 mmHg
- Diastolic Blood Pressure, Change from baseline, Mean ([3]; Day 7, Safety Population): −1.5 mmHg
- Diastolic Blood Pressure, Change from baseline, Median ([3]; Day 7, Safety Population): −1.5 mmHg
- Diastolic Blood Pressure, Change from baseline, Min-Max ([3]; Day 7, Safety Population): −15-19 mmHg
- Pulse Rate, Actual, Mean ([3]; Day 7, Safety Population): 75.5 bpm
- Pulse Rate, Actual, Median ([3]; Day 7, Safety Population): 74.0 bpm
- Pulse Rate, Actual, Min-Max ([3]; Day 7, Safety Population): 52-102 bpm
- Pulse Rate, Change from baseline, Mean ([3]; Day 7, Safety Population): 0.5 bpm
- Pulse Rate, Change from baseline, Median ([3]; Day 7, Safety Population): −2.0 bpm
- Pulse Rate, Change from baseline, Min-Max ([3]; Day 7, Safety Population): −29-38 bpm
- Respiration, Actual, Mean ([3]; Day 7, Safety Population): 16.0 bpm
- Respiration, Actual, Median ([3]; Day 7, Safety Population): 16.0 bpm
- Respiration, Actual, Min-Max ([3]; Day 7, Safety Population): 12-20 bpm
- Respiration, Change from baseline, Mean ([3]; Day 7, Safety Population): 0.2 bpm
- Respiration, Change from baseline, Median ([3]; Day 7, Safety Population): 0.0 bpm
- Respiration, Change from baseline, Min-Max ([3]; Day 7, Safety Population): −4-4 bpm
- Systolic Blood Pressure, Actual, Mean ([3]; Day 7, Safety Population): 116.7 mmHg
- Systolic Blood Pressure, Actual, Median ([3]; Day 7, Safety Population): 116.0 mmHg
- Systolic Blood Pressure, Actual, Min-Max ([3]; Day 7, Safety Population): 95-142 mmHg
- Systolic Blood Pressure, Change from baseline, Mean ([3]; Day 7, Safety Population): −1.4 mmHg
- Systolic Blood Pressure, Change from baseline, Median ([3]; Day 7, Safety Population): −0.5 mmHg
- Systolic Blood Pressure, Change from baseline, Min-Max ([3]; Day 7, Safety Population): −21-15 mmHg
- Temperature, Actual, Mean ([3]; Day 7, Safety Population): 97.90 ° F.
- Temperature, Actual, Median ([3]; Day 7, Safety Population): 97.95 ° F.
- Temperature, Actual, Min-Max ([3]; Day 7, Safety Population): 96.0-98.9 ° F.
- Temperature, Change from baseline, Mean ([3]; Day 7, Safety Population): −0.03 ° F.
- Temperature, Change from baseline, Median ([3]; Day 7, Safety Population): 0.00 ° F.
- Temperature, Change from baseline, Min-Max ([3]; Day 7, Safety Population): −1.8-1.8 ° F.
- Body Weight for Patients of Age 12 to 17, Actual, Mean [3, 4]: 135.8 lb
- Body Weight for Patients of Age 12 to 17, Actual, Median [3, 4]: 121.5 lb
- Body Weight for Patients of Age 12 to 17, Actual, Min-Max [3, 4]: 87-197 lb
- Body Weight for Patients of Age 18 and Beyond, Actual, Mean [3, 5]: 178.2 lb
- Body Weight for Patients of Age 18 and Beyond, Actual, Median [3, 5]: 172.0 lb
- Body Weight for Patients of Age 18 and Beyond, Actual, Min-Max [3, 5]: 115-265 lb
- Body Weight, Actual, Mean ([3]; Day 14, Safety Population): 173.0 lb
- Body Weight, Actual, Median ([3]; Day 14, Safety Population): 168.0 lb
- Body Weight, Actual, Min-Max ([3]; Day 14, Safety Population): 87-265 lb
- Diastolic Blood Pressure, Actual, Mean ([3]; Day 14, Safety Population): 73.6 mmHg
- Diastolic Blood Pressure, Actual, Median ([3]; Day 14, Safety Population): 74.0 mmHg
- Diastolic Blood Pressure, Actual, Min-Max ([3]; Day 14, Safety Population): 54-90 mmHg
- Diastolic Blood Pressure, Change from baseline, Mean ([3]; Day 14, Safety Population): −0.4 mmHg
- Diastolic Blood Pressure, Change from baseline, Median ([3]; Day 14, Safety Population): 0.0 mmHg
- Diastolic Blood Pressure, Change from baseline, Min-Max ([3]; Day 14, Safety Population): −24-22 mmHg
- Pulse Rate, Actual, Mean ([3]; Day 14, Safety Population): 75.3 bpm
- Pulse Rate, Actual, Median ([3]; Day 14, Safety Population): 74.0 bpm
- Pulse Rate, Actual, Min-Max ([3]; Day 14, Safety Population): 53-95 bpm
- Pulse Rate, Change from baseline, Mean ([3]; Day 14, Safety Population): 0.3 bpm
- Pulse Rate, Change from baseline, Median ([3]; Day 14, Safety Population): 1.0 bpm
- Pulse Rate, Change from baseline, Min-Max ([3]; Day 14, Safety Population): −22-23 bpm
- Respiration, Actual, Mean ([3]; Day 14, Safety Population): 15.8 bpm
- Respiration, Actual, Median ([3]; Day 14, Safety Population): 16.0 bpm
- Respiration, Actual, Min-Max ([3]; Day 14, Safety Population): 12-20 bpm
- Respiration, Change from baseline, Mean ([3]; Day 14, Safety Population): 0.0 bpm
- Respiration, Change from baseline, Median ([3]; Day 14, Safety Population): 0.0 bpm
- Respiration, Change from baseline, Min-Max ([3]; Day 14, Safety Population): −4-4 bpm
- Systolic Blood Pressure, Actual, Mean ([3]; Day 14, Safety Population): 118.9 mmHg
- Systolic Blood Pressure, Actual, Median ([3]; Day 14, Safety Population): 117.0 mmHg
- Systolic Blood Pressure, Actual, Min-Max ([3]; Day 14, Safety Population): 98-170 mmHg
- Systolic Blood Pressure, Change from baseline, Mean ([3]; Day 14, Safety Population): 1.0 mmHg
- Systolic Blood Pressure, Change from baseline, Median ([3]; Day 14, Safety Population): 1.5 mmHg
- Systolic Blood Pressure, Change from baseline, Min-Max ([3]; Day 14, Safety Population): −20-40 mmHg
- Temperature, Actual, Mean ([3]; Day 14, Safety Population): 97.86 ° F.
- Temperature, Actual, Median ([3]; Day 14, Safety Population): 97.90 ° F.
- Temperature, Actual, Min-Max ([3]; Day 14, Safety Population): 96.2-99.1 ° F.
- Temperature, Change from baseline, Mean ([3]; Day 14, Safety Population): −0.03 ° F.
- Temperature, Change from baseline, Median ([3]; Day 14, Safety Population): 0.10 ° F.
- Temperature, Change from baseline, Min-Max ([3]; Day 14, Safety Population): −1.6-2.0 ° F.
- Body Weight for Patients of Age 12 to 17, Change from baseline, Mean [3, 6]: −0.5 lb
- Body Weight for Patients of Age 12 to 17, Change from baseline, Median [3, 6]: −0.5 lb
- Body Weight for Patients of Age 12 to 17, Change from baseline, Min-Max [3, 6]: −2-2 lb
- Body Weight for Patients of Age 18 and Beyond, Change from baseline, Mean [3, 7]: −0.5 lb
- Body Weight for Patients of Age 18 and Beyond, Change from baseline, Median [3, 7]: 0.0 lb
- Body Weight for Patients of Age 18 and Beyond, Change from baseline, Min-Max [3, 7]: −6-7 lb
- Body Weight, Change from baseline, Mean [3, 8]: −0.5 lb
- Body Weight, Change from baseline, Median [3, 8]: 0.0 lb
- Body Weight, Change from baseline, Min-Max [3, 8]: −6-7 lb
- Body Weight for Patients of Age 12 to 17, Actual, Mean [3, 9]: 136.3 lb
- Body Weight for Patients of Age 12 to 17, Actual, Median [3, 9]: 122.5 lb
- Body Weight for Patients of Age 12 to 17, Actual, Min-Max [3, 9]: 85-199 lb
- Body Weight for Patients of Age 18 and Beyond, Actual, Mean [3, 10]: 177.9 lb
- Body Weight for Patients of Age 18 and Beyond, Actual, Median [3, 10]: 169.5 lb
- Body Weight for Patients of Age 18 and Beyond, Actual, Min-Max [3, 10]: 117-269 lb
- Body Weight, Actual, Mean ([3]; Screening, Safety Population): 172.9 lb
- Body Weight, Actual, Median ([3]; Screening, Safety Population): 168.5 lb
- Body Weight, Actual, Min-Max ([3]; Screening, Safety Population): 85-269 lb
- Diastolic Blood Pressure, Actual, Mean ([3]; Screening, Safety Population): 75.6 mmHg
- Diastolic Blood Pressure, Actual, Median ([3]; Screening, Safety Population): 78.0 mmHg
- Diastolic Blood Pressure, Actual, Min-Max ([3]; Screening, Safety Population): 50-95 mmHg
- Pulse Rate, Actual, Mean ([3]; Screening, Safety Population): 75.5 bpm
- Pulse Rate, Actual, Median ([3]; Screening, Safety Population): 78.0 bpm
- Pulse Rate, Actual, Min-Max ([3]; Screening, Safety Population): 50-103 bpm
- Respiration, Actual, Mean ([3]; Screening, Safety Population): 15.7 bpm
- Respiration, Actual, Median ([3]; Screening, Safety Population): 16.0 bpm
- Respiration, Actual, Min-Max ([3]; Screening, Safety Population): 12-20 bpm
- Systolic Blood Pressure, Actual, Mean ([3]; Screening, Safety Population): 121.2 mmHg
- Systolic Blood Pressure, Actual, Median ([3]; Screening, Safety Population): 119.5 mmHg
- Systolic Blood Pressure, Actual, Min-Max ([3]; Screening, Safety Population): 96-156 mmHg
- Temperature, Actual, Mean ([3]; Screening, Safety Population): 98.04 ° F.
- Temperature, Actual, Median ([3]; Screening, Safety Population): 98.00 ° F.
- Temperature, Actual, Min-Max ([3]; Screening, Safety Population): 96.9-99.3 ° F.
